Source: US20060148858A1, “1, 2-Azole derivatives with hypoglycemic and hypolipidemic activity” (priority 2002, published 2006)

Experiments:
PPARδ-RXRα heterodimer = molecular target: T1, PPARδ-RXRα heterodimer (Homo sapiens, UniProt Q03181); experiment: PPARδ-RXRα heterodimer ligand activity, luciferase reporter in COS-1 transformant (Test Example 4); format: cell-based; conditions: COS-1 transformant (hPPARδ, hRXRα, reporter), 36-48 hours, concentration for 50% of the maximum fold induction
T1 construct: expressed in transfected cells; host or cells: COS-1
T1 sequence (Q03181 1-441): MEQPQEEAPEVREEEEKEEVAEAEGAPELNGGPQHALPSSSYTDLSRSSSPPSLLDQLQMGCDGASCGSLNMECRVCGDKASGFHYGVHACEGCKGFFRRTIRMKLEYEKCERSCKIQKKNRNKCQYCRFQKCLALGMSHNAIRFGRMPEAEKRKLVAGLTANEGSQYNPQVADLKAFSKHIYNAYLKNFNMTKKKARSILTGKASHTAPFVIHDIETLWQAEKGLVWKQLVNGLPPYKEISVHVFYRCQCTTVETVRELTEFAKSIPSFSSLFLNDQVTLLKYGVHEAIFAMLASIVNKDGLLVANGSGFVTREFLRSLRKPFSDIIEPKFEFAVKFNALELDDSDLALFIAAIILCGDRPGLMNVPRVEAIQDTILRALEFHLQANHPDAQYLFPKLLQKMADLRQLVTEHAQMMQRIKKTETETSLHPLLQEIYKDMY
T1 sequence (P19793 1-462 partner): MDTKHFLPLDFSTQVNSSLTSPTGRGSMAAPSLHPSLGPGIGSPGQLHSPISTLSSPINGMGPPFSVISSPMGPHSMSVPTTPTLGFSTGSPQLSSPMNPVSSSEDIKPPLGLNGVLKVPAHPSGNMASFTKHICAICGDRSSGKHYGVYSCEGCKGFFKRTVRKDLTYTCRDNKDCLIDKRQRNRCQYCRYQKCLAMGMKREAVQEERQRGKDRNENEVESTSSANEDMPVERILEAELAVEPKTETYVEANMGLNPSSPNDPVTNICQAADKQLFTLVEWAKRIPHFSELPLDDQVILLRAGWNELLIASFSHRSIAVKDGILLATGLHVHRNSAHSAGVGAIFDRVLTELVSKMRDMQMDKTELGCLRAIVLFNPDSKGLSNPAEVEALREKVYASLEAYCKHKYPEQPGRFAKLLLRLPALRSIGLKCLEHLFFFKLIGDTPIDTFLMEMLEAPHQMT
Experimental: The transformant obtained in Reference Example 9a was suspended in DMEM medium (produced by Life Technologies, Inc., USA) containing 0.1% fatty acid-free bovine serum albumin (BSA) (produced by Wako Pure Chemical Industries, Ltd.), and inoculate to each well of a 96-well white plate (produced by Corning Costar Corporation, USA) by 80 μl at 1×10^4 cells/well. Then the test compound (20 μl) was added and cultured at 37° C. under 5% CO2 for 36-48 hours. After removing the medium from the 96-well white plate, 40 μl of PIKKAGENE LT 7.5 (produced by Wako Pure Chemical Industries, Ltd.) diluted twice with HBSS (HANKS' BALANCED SALT SOLUTION)(produced by BIO WHITTAKER Inc., USA), was added. After stirring, the luciferase activity was determined using 1420 ARVO Multilabel Counter (produced by PerkinElmer Inc., USA).
A fold induction was calculated based on the luciferase activity of each test compound by taking the luciferase activity in the non-treatment group as 1. The values of the test compound concentration and the fold induction were analyzed using PRISM (produced by GraphPad Software Inc. USA) to calculate the EC50 values, the effective concentration of a test compound for 50% of the maximum fold induction.
COS-1 cells were inoculated to a 150 cm^2 cell culture flask (produced by Corning Costar Corporation, USA) at the density of 5×10^6 cells/50 ml, and cultured at 37° C. under 5% CO2 conditions for 24 hours. Subsequently, a DNA was introduced into the cell under the condition shown below using Lipofectamine (produced by Invitrogen, USA).
First, Lipofectamine (125 μl), PLUS Reagent (100 μl, produced by Invitrogen, USA), plasmid pMCMVneo-hPPARδ (2.5 μg) obtained in Reference Example 3a, plasmid pMCMVneo-hRXRα (2.5 μg) obtained in Reference Example 4a and reporter plasmid pGL3-4ERPP-TK neo (5 μg) obtained in Reference Example 5a, and pRL-tk (5 μg, produced by Promega, USA) were mixed with opti-MEM (5 ml, produced by Invitrogen, USA) to give a transfection mixture.
Then, the above-mentioned transfection mixture and opti-MEM (20 ml) were added to COS-1 cells washed with opti-MEM, and the cells were cultured at 37° C. under 5% CO2 conditions for 3 hours. DMEM medium (25 ml, produced by Life Technologies, Inc., USA) containing 0.1% fatty acid-free bovine serum albumin (BSA) (produced by Wako Pure Chemical Industries, Ltd.) was added to the obtained COS-1 cells, and the cells were cultured at 37° C. under 5% CO2 conditions for 18-24 hours to give a transformant.

| EC50 (PPARδ-RXRα heterodimer) | melting point | Structure (SMILES) |
| --- | --- | --- |
| 6.4 nM | 101 to 102 °C | CCCc1nn(-c2ccc(C(F)(F)F)cn2)cc1CCCOc1ccc(CC(=O)O)cc1 [Example 46, [4-(3-{3-propyl-1-[5-(trifluoromethyl)-2-pyridyl]-1H-pyrazol-4-yl}propoxy)phenyl]acetic acid] |
| 2.8 nM | 155 to 156 °C | CCOc1nn(-c2ccc(C(F)(F)F)cn2)cc1CCOc1cc(CCC(=O)O)n(-c2ccccc2)n1 [Example 56, 3-[3-(2-{3-ethoxy-1-[5-(trifluoromethyl)-2-pyridinyl]-1H-pyrazol-4-yl}ethoxy)-1-phenyl-1H-pyrazol-5-yl]propanoic acid] |
| 0.81 nM | 128 to 130 °C | CCOc1nn(-c2ccc(C(F)(F)F)cn2)cc1CCOc1cccc(CC(=O)O)c1 [Example 62, [3-(2-{3-ethoxy-1-[5-(trifluoromethyl)-2-pyridinyl]-1H-pyrazol-4-yl}ethoxy)phenyl]acetic acid] |
| 1.8 nM | 124 to 126 °C | CCCc1nn(-c2ccc(C(F)(F)F)cn2)cc1CCCOc1ccc(CCC(=O)O)c(C)c1 [Example 65, 3-[2-methyl-4-(3-{3-propyl-1-[5-(trifluoromethyl)-2-pyridinyl]-1H-pyrazol-4-yl}propoxy)phenyl]propanoic acid] |
| 3.8 nM | 147 to 148 °C | CCOc1nn(-c2ccc(C(F)(F)F)cn2)cc1CCOc1ccc(CCC(=O)O)c(OC)c1 [Example 75, 3-[4-(2-{3-ethoxy-1-[5-(trifluoromethyl)-2-pyridinyl]-1H-pyrazol-4-yl}ethoxy)-2-methoxyphenyl]propanoic acid] |
| 1.9 nM | 117 to 119 °C | CCOc1nn(-c2ccc(C(F)(F)F)cn2)cc1CCOc1ccc(CCC(=O)O)c(C)c1 [Example 76, 3-[4-(2-{3-ethoxy-1-[5-(trifluoromethyl)-2-pyridinyl]-1H-pyrazol-4-yl}ethoxy)-2-methylphenyl]propanoic acid] |
| 6 nM | 120 to 121 °C | CCOc1nn(-c2ccc(C(F)(F)F)cn2)cc1CCCOc1ccc(CCC(=O)O)c(OC)c1 [Example 85, 3-[4-(3-{3-ethoxy-1-[5-(trifluoromethyl)-2-pyridyl]-1H-pyrazol-4-yl}propoxy)-2-methoxyphenyl]propionic acid] |
| 1.5 nM | 114 to 115 °C | CCCc1nn(-c2ccc(C(F)(F)F)cn2)cc1CCCOc1ccc(CCC(=O)O)c(OC)c1 [Example 86, 3-[2-methoxy-4-(3-{3-propyl-1-[5-(trifluoromethyl)-2-pyridyl]-1H-pyrazol-4-yl}propoxy)phenyl]propionic acid] |
| 6 nM | 88 to 89 °C | CCCc1nn(-c2ccc(C(F)(F)F)cn2)cc1CCCOc1cc(CC(=O)O)ccc1F [Example 91, [4-fluoro-3-(3-{3-propyl-1-[5-(trifluoromethyl)-2-pyridyl]-1H-pyrazol-4-yl}propoxy)phenyl]acetic acid] |
| 1.9 nM | 98 to 99 °C | CCCc1nn(-c2ccc(C(F)(F)F)cn2)cc1CCCOc1cc(CCC(=O)O)cc(OC)c1 [Example 92, 3-[3-methoxy-5-(3-{3-propyl-1-[5-(trifluoromethyl)-2-pyridyl]-1H-pyrazol-4-yl}propoxy)phenyl]propionic acid] |
| 4 nM | 134 to 135 °C | CCCc1nn(-c2ccc(C(F)(F)F)cn2)cc1CCCOc1ccc(CC(=O)O)c(C)c1 [Example 94, [2-methyl-4-(3-{3-propyl-1-[5-(trifluoromethyl)-2-pyridyl]-1H-pyrazol-4-yl}propoxy)phenyl]acetic acid] |
| 1.7 nM | 126 to 127 °C | CCCc1nn(-c2ccc(C(F)(F)F)cn2)cc1CCCOc1ccc(CCC(=O)O)cc1OC [Example 96, 3-[3-methoxy-4-(3-{3-propyl-1-[5-(trifluoromethyl)-2-pyridyl]-1H-pyrazol-4-yl}propoxy)phenyl]propionic acid] |
| 0.55 nM | 135 to 136 °C | CCOc1cc(OCCCc2cn(-c3ccc(C(F)(F)F)cn3)nc2-c2ccccc2)ccc1CCC(=O)O [Example 99, 3-[2-ethoxy-4-(3-{3-phenyl-1-[5-(trifluoromethyl)-2-pyridinyl]-1H-pyrazol-4-yl}propoxy)phenyl]propanoic acid] |
| 6.1 nM | 126 to 127 °C | CCOc1nn(-c2ccc(C(F)(F)F)cc2)cc1CCCOc1cc(CCC(=O)O)n(-c2ccccc2)n1 [Example 111, 3-[3-(3-{3-ethoxy-1-[4-(trifluoromethyl)phenyl]-1H-pyrazol-4-yl}propoxy)-1-phenyl-1H-pyrazol-5-yl]propanoic acid] |
| 4.8 nM | 108 to 109 °C | CCOc1nn(-c2ccc(C(F)(F)F)cc2)cc1CCCOc1cccc(CC(=O)O)c1 [Example 113, [3-(3-{3-ethoxy-1-[4-(trifluoromethyl)phenyl]-1H-pyrazol-4-yl}propoxy)phenyl]acetic acid] |
| 1.6 nM | 126 to 127 °C | CCCOc1cc(OCCCc2cn(-c3ccc(C(F)(F)F)cn3)nc2OCC)ccc1CCC(=O)O [Example 117, 3-[4-(3-{3-ethoxy-1-[5-(trifluoromethyl)-2-pyridinyl]-1H-pyrazol-4-yl}propoxy)-2-propoxyphenyl]propanoic acid] |
| 4.9 nM | 158 to 159 °C | COc1cc(OCc2cn(-c3ccc(C(F)(F)F)cn3)nc2C)ccc1CCC(=O)O [Example 122, 3-[2-methoxy-4-({3-methyl-1-[5-(trifluoromethyl)-2-pyridyl]-1H-pyrazol-4-yl}methoxy)phenyl]propionic acid] |

| Structure (SMILES) | EC50 (PPARδ-RXRα heterodimer) | melting point |
| --- | --- | --- |
| CC(C)c1nn(-c2ccc(C(F)(F)F)cn2)cc1CCCCOc1cc(CCC(=O)O)n(-c2ccccc2)n1 [Example 49, 3-[3-(4-{3-isopropyl-1-[5-(trifluoromethyl)-2-pyridinyl]-1H-pyrazol-4-yl}butoxy)-1-phenyl-1H-pyrazol-5-yl]propanoic acid] | 1.7 nM | 137 to 138 °C |
| CCCc1nn(-c2ccc(C(F)(F)F)cn2)cc1CCCCOc1cccc(CC(=O)O)c1 [Example 59, [3-(4-{3-propyl-1-[5-(trifluoromethyl)-2-pyridinyl]-1H-pyrazol-4-yl}butoxy)phenyl]acetic acid] | 9.7 nM | 96 to 97 °C |
| CCCc1nn(-c2ccc(C(F)(F)F)cn2)cc1CCCCOc1cc(CC(=O)O)ccc1OC [Example 63, [4-methoxy-3-(4-{3-propyl-1-[5-(trifluoromethyl)-2-pyridinyl]-1H-pyrazol-4-yl}butoxy)phenyl]acetic acid] | 9.5 nM | 147 to 148 °C |
| CCCCOc1cc(OCCCc2cn(-c3ccc(C(F)(F)F)cn3)nc2OCC)ccc1CCC(=O)O [Example 118, 3-[2-butoxy-4-{3-(3-ethoxy-1-[5-(trifluoromethyl)-2-pyridinyl]-1H-pyrazol-4-yl}propoxy)phenyl]propanoic acid] | 7.2 nM | 123 to 124 °C |
